Source: patent US20070292908A1, “Method for Detecting Streptococcus Agalactiae Using Alpha-Glucosidase Activity” (BIOMERIEUX, priority 2004, published 2007)

Columns and labels:
Streptococcus agalactiae [1] = assay: Number of strains detected as a function of the concentration of α-glucosidase substrate; type: cell-based; settings: positive when I≧0.6, 8 strains
Source text: The above protocol was repeated, with the exception that the concentration of enzymatic substrate was varied.
Table 2 below gives the number of strains detected (considered to be positive when I≧0.6) as a function of the concentration of substrate.

Streptococcus agalactiae [2] = assay: Detection of Streptococcus agalactiae strains on reaction media containing an α-glucosidase enzymatic substrate; type: cell-based; settings: substrate 0.1 g/l; for intensity (I) of coloration: arbitrary scale 0 to 4
Method: The reaction media were prepared by mixing heart-brain extract (4.84 g/l; Solabia), meat infusion (1.96 g/l; Solabia), biothione (1 g/l; Solabia), biotrypcase (7.2 g/l; Solabia), sodium carbonate (0.3 g/l; VWR), sodium pyruvate (2 g/l; Fluka), HEPES buffer (0.4 g/l; Sigma), lactalbumin peptone (2 g/l; DMV), glucose (1 g/l; Merck), American agar (2 g/l; Sobigel) and European agar (12 g/l; Roko).
The media were then poured into a Petri dish for subsequent inoculation with bacterial strains.
Eight Streptococcus agalactiae strains derived from the applicant's collection, suspended in physiological saline, were inoculated so as to give isolated colonies on each of the media. The dishes were then incubated at 37° C. for 48 hours. The colonies formed are examined visually after 18, 24 and more than 40 hours of incubation. The coloration of these colonies, the growth and also the intensity of this coloration were noted.
The results are given in table 1 below and are expressed: • in terms of growth (G) with the size being indicated in mm, • in terms of intensity (1) of coloration based on an arbitrary scale ranging from 0 to 4, 0 corresponding to an absence of activity and 4 corresponding to the presence of a very intense coloration, • in terms of color (Co) with T=turquoise, R=pink or red, Gr=green, Mg=magenta, • according to the incubation time in hours (T).

In the case of “5-bromo-4-chloro-3-indolyl-N-methyl-α-D-glucopyranoside [GreenA-alpha-Glu]”, the “number of strains detected” value (Streptococcus agalactiae [1]; substrate 100 mg/l, incubation 24 h) is reported as 6/8, the “number of strains detected” value (Streptococcus agalactiae [1]; substrate 100 mg/l, incubation 48 h) is reported as 8/8 and the “number of strains detected” value (Streptococcus agalactiae [1]; substrate 200 mg/l, incubation 24 h) is reported as 7/8. The “number of strains detected” value (Streptococcus agalactiae [1]; substrate 200 mg/l, incubation 48 h) was 8/8, the “number of strains detected” value (Streptococcus agalactiae [1]; substrate 300 mg/l, incubation 24 h) was 7/8 and the “number of strains detected” value (Streptococcus agalactiae [1]; substrate 300 mg/l, incubation 48 h) was 7/8. For the same substance, the “intensity (I) of coloration” value (Streptococcus agalactiae [2]; strain 0008200, 18 h) was 0.5, the “growth (G), size” value (Streptococcus agalactiae [2]; strain 0008200, 18 h incubation) was 0.7 mm and the “intensity (I) of coloration” value (Streptococcus agalactiae [2]; strain 0008200, 24 h) was 0.8. For the same substance, the “growth (G), size” value (Streptococcus agalactiae [2]; strain 0008200, 24 h incubation) was 0.7 mm, the “intensity (I) of coloration” value (Streptococcus agalactiae [2]; strain 0008200, >40 h) was 2 and the “growth (G), size” value (Streptococcus agalactiae [2]; strain 0008200, >40 h incubation) was 0.7 mm. The “intensity (I) of coloration” value (Streptococcus agalactiae [2]; strain 0008206, 18 h) was 0.6, the “growth (G), size” value (Streptococcus agalactiae [2]; strain 0008206, 18 h incubation) was 0.7 mm and the “intensity (I) of coloration” value (Streptococcus agalactiae [2]; strain 0008206, 24 h) was 1. The “growth (G), size” value (Streptococcus agalactiae [2]; strain 0008206, 24 h incubation) was 0.7 mm, the “intensity (I) of coloration” value (Streptococcus agalactiae [2]; strain 0008206, >40 h) was 2 and the “growth (G), size” value (Streptococcus agalactiae [2]; strain 0008206, >40 h incubation) was 0.8 mm. For the same substance, the “intensity (I) of coloration” value (Streptococcus agalactiae [2]; strain 0101060, 18 h) was 0.8, the “growth (G), size” value (Streptococcus agalactiae [2]; strain 0101060, 18 h incubation) was 0.3 mm and the “intensity (I) of coloration” value (Streptococcus agalactiae [2]; strain 0101060, 24 h) was 1.7. The “growth (G), size” value (Streptococcus agalactiae [2]; strain 0101060, 24 h incubation) was 0.4 mm, the “intensity (I) of coloration” value (Streptococcus agalactiae [2]; strain 0101060, >40 h) was 3.5 and the “growth (G), size” value (Streptococcus agalactiae [2]; strain 0101060, >40 h incubation) was 0.5 mm. For the same substance, the “intensity (I) of coloration” value (Streptococcus agalactiae [2]; strain 7611003, 18 h) was 2, the “growth (G), size” value (Streptococcus agalactiae [2]; strain 7611003, 18 h incubation) was 1 mm and the “intensity (I) of coloration” value (Streptococcus agalactiae [2]; strain 7611003, 24 h) was 2. For the same substance, the “growth (G), size” value (Streptococcus agalactiae [2]; strain 7611003, 24 h incubation) was 1.3 mm, the “intensity (I) of coloration” value (Streptococcus agalactiae [2]; strain 7611003, >40 h) was 3 and the “growth (G), size” value (Streptococcus agalactiae [2]; strain 7611003, >40 h incubation) was 1.7 mm. For the same substance, the “growth (G), size” value (Streptococcus agalactiae [2]; strain 7701031, 18 h incubation) was 0.5 mm, the “intensity (I) of coloration” value (Streptococcus agalactiae [2]; strain 7701031, 24 h) was 0.3 and the “growth (G), size” value (Streptococcus agalactiae [2]; strain 7701031, 24 h incubation) was 0.7 mm. The “intensity (I) of coloration” value (Streptococcus agalactiae [2]; strain 7701031, >40 h) was 0.8, the “growth (G), size” value (Streptococcus agalactiae [2]; strain 7701031, >40 h incubation) was 1.5 mm and the “intensity (I) of coloration” value (Streptococcus agalactiae [2]; strain 7702055, 18 h) was 1. For the same substance, the “growth (G), size” value (Streptococcus agalactiae [2]; strain 7702055, 18 h incubation) was 0.7 mm, the “intensity (I) of coloration” value (Streptococcus agalactiae [2]; strain 7702055, 24 h) was 2 and the “growth (G), size” value (Streptococcus agalactiae [2]; strain 7702055, 24 h incubation) was 0.8 mm. The “intensity (I) of coloration” value (Streptococcus agalactiae [2]; strain 7702055, >40 h) was 3, the “growth (G), size” value (Streptococcus agalactiae [2]; strain 7702055, >40 h incubation) was 1.7 mm and the “intensity (I) of coloration” value (Streptococcus agalactiae [2]; strain 8709013, 18 h) was 0.5. For the same substance, the “growth (G), size” value (Streptococcus agalactiae [2]; strain 8709013, 18 h incubation) was 0.4 mm, the “intensity (I) of coloration” value (Streptococcus agalactiae [2]; strain 8709013, 24 h) was 1 and the “growth (G), size” value (Streptococcus agalactiae [2]; strain 8709013, 24 h incubation) was 0.5 mm. For the same substance, the “intensity (I) of coloration” value (Streptococcus agalactiae [2]; strain 8709013, >40 h) was 2.7, the “growth (G), size” value (Streptococcus agalactiae [2]; strain 8709013, >40 h incubation) was 0.7 mm and the “intensity (I) of coloration” value (Streptococcus agalactiae [2]; strain 8904053, 18 h) was 0.5. For the same substance, the “growth (G), size” value (Streptococcus agalactiae [2]; strain 8904053, 18 h incubation) was 0.7 mm, the “intensity (I) of coloration” value (Streptococcus agalactiae [2]; strain 8904053, 24 h) was 0.8 and the “growth (G), size” value (Streptococcus agalactiae [2]; strain 8904053, 24 h incubation) was 0.7 mm. For the same substance, the “intensity (I) of coloration” value (Streptococcus agalactiae [2]; strain 8904053, >40 h) was 2.3 and the “growth (G), size” value (Streptococcus agalactiae [2]; strain 8904053, >40 h incubation) was 1 mm.
